{"source": "paper PMC10895678", "about": "(Journal of Medicinal Chemistry, 2024)", "key": {"M. smegmatis": {"test_system": "M. smegmatis", "test": "MIC determination, resazurin end point assay, M. smegmatis", "assay_type": "cell-based, Mycobacterium smegmatis"}, "M. bovis BCG": {"test_system": "M. bovis BCG", "test": "microbe, parasite or virus in culture", "assay_type": "cell-based, Mycobacterium bovis BCG"}, "M. tuberculosis H37Rv": {"test_system": "M. tuberculosis H37Rv", "test": "Mycobacterial time kill experiments (total viable counts)", "assay_type": "cell-based, Mycobacterium tuberculosis", "settings": "29 μM, by day 10, to limit of detection (100 CFU mL^–1)"}, "BCG pTIC6-fbpB": {"test_system": "BCG pTIC6-fbpB", "assay_type": "cell-based, Mycobacterium bovis BCG"}, "BCG pTIC6-fbpA": {"test_system": "BCG pTIC6-fbpA", "assay_type": "cell-based, Mycobacterium bovis BCG"}, "BCG pTIC6-fbpC": {"test_system": "BCG pTIC6-fbpC", "assay_type": "cell-based, Mycobacterium bovis BCG"}}}
{"compound": "(rac)-1-(((2,4-cis)-1-(2-bromobenzyl)-4-phenylazetidin-2-yl)methyl)-4-(4-(trifluoromethyl)phenyl)piperidine [BGAz-016]", "values": [{"measurement": "MIC99", "setting": "M. smegmatis; resazurin end point assay, modified Gompertz function, three biological replicates, read-out: M. smeg. MIC99", "value": 100, "unit": "µM"}, {"measurement": "MIC50 smegmatis", "setting": "M. smegmatis; supplementary MIC data file", "value": 34, "unit": "µM"}, {"measurement": "MIC99 smegmatis", "setting": "M. smegmatis; supplementary MIC data file", "value": "> 100", "unit": "µM"}, {"measurement": "BCG MIC99", "setting": "M. bovis BCG; resazurin end point assay, modified Gompertz function, three biological replicates", "value": 60, "unit": "µM"}, {"measurement": "MIC50 BCG", "setting": "M. bovis BCG; supplementary MIC data file", "value": 48, "unit": "µM"}, {"measurement": "MIC99 BCG", "setting": "M. bovis BCG; supplementary MIC data file", "value": 60, "unit": "µM"}]}
{"compound": "NNC(=O)c1ccncc1", "note": "[Isoniazid, reference compound]", "values": [{"measurement": "reduction of total viable count", "setting": "M. tuberculosis H37Rv", "value": "> 4.52 ± 0.60", "unit": "log10 CFU mL^–1"}]}
{"compound": "O=c1c2ccccc2[se]n1-c1ccccc1", "note": "[Ebselen, reference compound]", "values": [{"measurement": "BCG pTIC6-fbpB MIC", "setting": "BCG pTIC6-fbpB", "value": 90, "unit": "µM"}, {"measurement": "increase in MIC upon overexpression of FbpB", "setting": "BCG pTIC6-fbpB", "value": "three-fold increase"}, {"measurement": "BCG pTIC6-fbpA MIC", "setting": "BCG pTIC6-fbpA", "value": 28, "unit": "µM"}, {"measurement": "shift in MIC upon overexpression of FbpA", "setting": "BCG pTIC6-fbpA", "value": "No shift in MIC"}, {"measurement": "BCG pTIC6-fbpC MIC", "setting": "BCG pTIC6-fbpC", "value": 98, "unit": "µM"}, {"measurement": "increase in MIC upon overexpression of FbpC", "setting": "BCG pTIC6-fbpC", "value": "three-fold increase"}]}
